Counter-ions that a name gives are not always drawn.
Key:
THP1/LXR-Luc cells = assay: THP1/LXR-Luc luciferase reporter bioassay; assay type: cell-based; details: Homo sapiens, THP-1, 48 hours; for EC50: read-out: Activation of THP1/LXR-Luc cells: EC50; for Emax: relative to maximum activation of free payload 9d, read-out: Activation of THP1/LXR-Luc cells: Fold of activation
Excerpt: The fold activation in the cell-based assays (as described in Example 68, below) was defined based on the maximum activation of the free payload 9d.
A bioassay was developed to assess the activity of LXR agonists after internalization of an agonist or of a ncADC into cells and binding to LXR, a nuclear receptor, using a commercially available LXR reporter (referred to as LXR-Luc) that contains the firefly luciferase gene under control by minimal CMV promoter and tandem repeats of the LXR transcriptional response element. For this assay, a THP1 cell line, which is a human monocytic leukaemia line, was engineered to express full length human Her2 (expressing amino acids M1 through V1255 of accession number NP_004439.2). The subsequent stable cell line was further transduced with a Cignal LXR Luc Reporter (Qiagen, Cat # CLS-7041L). The resulting stable cell line is referred to herein as THP1/Her2/LXR-Luc. The Her2 cell surface expression on THP1/Her2/LXR-Luc cell line was confirmed by FACS (data not shown).
Additionally, a THP1 cell line was transduced with a Cignal LXR Luc Reporter (Qiagen, Cat # CLS-7041L) without the addition of Her2. The resulting stable cell line is referred to herein as THP1/LXR-Luc. All of the antibodies used in the subsequent bioassays were assessed for their ability to internalize and release a payload on the bioassay cell line used.
This example assessed the ability of the LXR agonists provided herein, reference compounds, and anti-Her2 antibody-LXR ncADC to activate LXR. The samples were tested in the THP1/LXR-Luc/Her2 bioassay. For the assay, either THP1/LXR-Luc cells or THP1/LXR-Luc/Her2 cells were seeded onto white 96 well plates at 30,000 cells/well in media containing RPMI supplemented with 10% FBS and pencillin/streptomycin (complete media). Subsequently 3-fold serial dilutions of antibody drug conjugates, unconjugated antibodies, or free payloads were added to the cells at final concentration ranging from 100 nM to 0.01 nM. After 48-hour or 72-hour incubation, luciferase activity was determined after the addition of One-Glo™ reagent (Promega, Cat # E6130) to each well of cells. Relative light units (RLUs) were measured on a Victor luminometer (PerkinElmer) and the EC5o values were determined using a four-parameter logistic equation over a 10-point dose response curve (GraphPad Prism) (FIG. 15). The fold activation is calculated based on the maximum activation of the free payload 9d.

LXR alpha = target: T1, LXR alpha (Homo sapiens, UniProt Q13133); assay: LanthaScreen TR-FRET LXR alpha Coactivator Assay (cell-free binding); details: TR-FRET, 12-point curve; read-out: Cell free binding LXRα IC50
T1 construct: LXR alpha or beta LBD-GST; purchased ThermoFisher PV4655
T1 sequence (Q13133 209-447 limits assumed): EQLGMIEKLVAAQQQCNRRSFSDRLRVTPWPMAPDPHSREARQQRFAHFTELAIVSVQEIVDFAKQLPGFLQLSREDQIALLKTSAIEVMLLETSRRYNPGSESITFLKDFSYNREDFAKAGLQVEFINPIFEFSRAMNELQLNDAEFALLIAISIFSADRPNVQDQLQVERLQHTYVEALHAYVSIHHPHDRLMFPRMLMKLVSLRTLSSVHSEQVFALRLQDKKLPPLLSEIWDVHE
Protocol: (§1) To evaluate the ability of novel LXR agonists to bind to the LXR alpha and beta receptor, a cell-free binding assay was performed using a LanthaScreen TR-FRET LXR alpha Coactivator Assay Kit (ThermoFisher, Cat # PV4655) and LXR beta Coactivator Assay Kit (ThermoFisher, Cat # PV4658). The assay was performed according to the manufacturer's instructions. Briefly, a 3-fold serial dilution of LXR agonists were prepared in 100% DMSO starting at 100 μM (100× of final). Serial dilutions were further diluted 50-fold in nuclear receptor buffer F with 5 mM DTT, and transferred to a 384-well assay plate. Next, Fluorescein-D22, LXR alpha or beta LBD-GST, and Tb anti-GST antibody was sequentially added to 384-well assay plate. The plate was then incubated at rt for 2.5 hours while being protected from light. […] The IC50 values were determined using a four-parameter logistic equation over a 12-point response curve (GraphPad Prism).

LXR beta = target: T2, LXR beta (Homo sapiens, UniProt P55055); assay: LanthaScreen TR-FRET LXR beta Coactivator Assay (cell-free binding); details: TR-FRET, 12-point curve; read-out: Cell free binding LXRβ IC50
T2 construct: LXR alpha or beta LBD-GST; purchased ThermoFisher PV4658
T2 sequence (P55055 222-460 limits assumed): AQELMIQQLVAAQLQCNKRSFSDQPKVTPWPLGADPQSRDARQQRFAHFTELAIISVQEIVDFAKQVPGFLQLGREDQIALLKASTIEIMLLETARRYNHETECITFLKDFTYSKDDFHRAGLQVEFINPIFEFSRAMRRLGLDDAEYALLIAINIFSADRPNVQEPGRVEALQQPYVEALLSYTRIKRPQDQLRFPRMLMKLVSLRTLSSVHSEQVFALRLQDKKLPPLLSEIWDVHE
Protocol: as §1

| SMILES | EC50 (THP1/LXR-Luc cells) [nM] | Emax (THP1/LXR-Luc cells) [%] | IC50 (LXR alpha) [nM] | IC50 (LXR beta) [nM] |
| --- | --- | --- | --- | --- |
| C[C@]1(C(=O)NC(=O)[C@@]2(C)CCC[C@]3(C)c4cc(O)ccc4CC[C@@H]23)CCC[C@]2(C)c3cc(O)ccc3CC[C@@H]12 [Compound 9a, (1S,4aS,10aR)-6-Hydroxy-N-((1S,4aS,10aR)-6-hydroxy-1,4a-dimethyl-1,2,3,4,4a,9,10,10a-octahydrophenanthrene-1-carbonyl)-1,4a-dimethyl-1,2,3,4,4a,9,10,10a-octahydrophenanthrene-1-carboxamide] | 1 to 10 | > 75 |  |  |
| C[C@]1(C(=O)NC(=O)[C@@]2(C)CCC[C@]3(C)c4cc(OCCO)ccc4CC[C@@H]23)CCC[C@]2(C)c3cc(O)ccc3CC[C@@H]12 [Compound 9b, (1S,4aS,10aR)-6-Hydroxy-N-((1S,4aS,10aR)-6-(2-hydroxyethoxy)-1,4a-dimethyl-1,2,3,4,4a,9,10,10a-octahydrophenanthrene-1-carbonyl)-1,4a-dimethyl-1,2,3,4,4a,9,10,10a-octahydrophenanthrene-1-carboxamide] | 1 to 10 | > 75 | < 10 | < 10 |
| C[C@]1(C(=O)NC(=O)[C@@]2(C)CCC[C@]3(C)c4cc(OCCN)ccc4CC[C@@H]23)CCC[C@]2(C)c3cc(O)ccc3CC[C@@H]12 [Compound 9c, (1S,4aS,10aR)-6-(2-Aminoethoxy)-N-((1S,4aS,10aR)-6-hydroxy-1,4a-dimethyl-1,2,3,4,4a,9,10,10a-octahydrophenanthrene-1-carbonyl)-1,4a-dimethyl-1,2,3,4,4a,9,10,10a-octahydrophenanthrene-1-carboxamide] | 10 to 100 | > 75 | 10 to 100 | < 10 |
| C[C@]1(C(=O)NC(=O)[C@@]2(C)CCC[C@]3(C)c4cc(N5CCNCC5)ccc4CC[C@@H]23)CCC[C@]2(C)c3cc(O)ccc3CC[C@@H]12 [Compound 9e, (1S,4aS,10aR)—N-((1S,4aS,10aR)-1,4a-Dimethyl-6-(piperazin-1-yl)-1,2,3,4,4a,9,10,10a-octahydrophenanthrene-1-carbonyl)-6-hydroxy-1,4a-dimethyl-1,2,3,4,4a,9,10,10a-octahydrophenanthrene-1-carboxamide] | 1 to 10 | > 75 | < 10 | < 10 |
| CN(C)c1ccc2c(c1)[C@@]1(C)CCC[C@](C)(C(=O)NC(=O)[C@@]3(C)CCC[C@]4(C)c5cc(O)ccc5CC[C@@H]34)[C@@H]1CC2 [Compound 9f, (1S,4aS,10aR)-6-(Dimethylamino)-N-((1S,4aS,10aR)-6-hydroxy-1,4a-dimethyl-1,2,3,4,4a,9,10,10a-octahydrophenanthrene-1-carbonyl)-1,4a-dimethyl-1,2,3,4,4a,9,10,10a-octahydrophenanthrene-1-carboxamide] | 1 to 10 | > 75 | < 10 | < 10 |
| C[C@]1(C(=O)NC(=O)[C@@]2(C)CCC[C@]3(C)c4cc(NC(=O)CCN)ccc4CC[C@@H]23)CCC[C@]2(C)c3cc(O)ccc3CC[C@@H]12 [Compound 9i, (1S,4aS,10aR)-6-(3-Aminopropanamido)-N-((1S,4aS,10aR)-6-hydroxy-1,4a-dimethyl-1,2,3,4,4a,9,10,10a-octahydrophenanthrene-1-carbonyl)-1,4a-dimethyl-1,2,3,4,4a,9,10,10a-octahydrophenanthrene-1-carboxamide] | 10 to 100 | 25 to 75 | < 10 | < 10 |
| CNCC(=O)Nc1ccc2c(c1)[C@@]1(C)CCC[C@](C)(C(=O)NC(=O)[C@@]3(C)CCC[C@]4(C)c5cc(O)ccc5CC[C@@H]34)[C@@H]1CC2 [Compound 9k, (1S,4aS,10aR)—N-((1S,4aS,10aR)-1,4a-Dimethyl-6-(2-(methylamino)acetamido)-1,2,3,4,4a,9,10,10a-octahydrophenanthrene-1-carbonyl)-6-hydroxy-1,4a-dimethyl-1,2,3,4,4a,9,10,10a-octahydrophenanthrene-1-carboxamide; Trifluoroacetic Acid Salt] | 1 to 10 | > 75 | 10 to 100 | < 10 |
| C[C@]1(C(=O)NC(=O)[C@@]2(C)CCC[C@]3(C)c4cc(NC(=O)[C@@H](N)Cc5c[nH]cn5)ccc4CC[C@@H]23)CCC[C@]2(C)c3cc(O)ccc3CC[C@@H]12 [Compound 9m, (1S,4aS,10aR)—N-[(1S,4aS,10aR)-6-Hydroxy-1,4a-dimethyl-1,2,3,4,4a,9,10,10a-octahydrophenanthrene-1-carbonyl]-6-[(2S)-2-amino-3-(1H-imidazol-4-yl)propanamido]-1,4a-dimethyl-1,2,3,4,4a,9,10,10a-octahydrophenanthrene-1-carboxamide; trifluoroacetic acid salt] | 1 to 10 | > 75 | 10 to 100 | < 10 |
| C[C@]1(C(=O)NC(=O)[C@@]2(C)CCC[C@]3(C)c4cc(NC(=O)[C@@H](N)CC(=O)O)ccc4CC[C@@H]23)CCC[C@]2(C)c3cc(O)ccc3CC[C@@H]12 [Compound 9n, (3S)-3-Amino-3-{[(4bS,8S,8aR)-8-{[(1S,4aS,10aR)-6-hydroxy-1,4a-dimethyl-1,2,3,4,4a,9,10,10a-octahydrophenanthrene-1-carbonyl]carbamoyl}-4b,8-dimethyl-4b,5,6,7,8,8a,9,10-octahydrophenanthren-3-yl]carbamoyl}propanoic Acid] | ≤ 1 | > 75 | 10 to 100 | < 10 |
| C[C@]1(C(=O)NC(=O)[C@@]2(C)CCC[C@]3(C)c4cc(CN)ccc4CC[C@@H]23)CCC[C@]2(C)c3cc(O)ccc3CC[C@@H]12 [Compound 9p, (1S,4aS,10aR)-6-(Aminomethyl)-N-((1S,4aS,10aR)-6-hydroxy-1,4a-dimethyl-1,2,3,4,4a,9,10,10a-octahydrophenanthrene-1-carbonyl)-1,4a-dimethyl-1,2,3,4,4a,9,10,10a-octahydrophenanthrene-1-carboxamide; Trifluoroacetic Acid Salt] | 1 to 10 | > 75 | 10 to 100 | < 10 |
| C[C@]1(CNC(=O)[C@@]2(C)CCC[C@]3(C)c4cc(O)ccc4CC[C@@H]23)CCC[C@]2(C)c3cc(O)ccc3CC[C@@H]12 [Compound 9u, (1S,4aS,10aR)—N-{[(1S,4aS,10aR)-6-Hydroxy-1,4a-dimethyl-1,2,3,4,4a,9,10,10a-octahydrophenanthren-1-yl]methyl}-6-hydroxy-1,4a-dimethyl-1,2,3,4,4a,9,10,10a-octahydrophenanthrene-1-carboxamide] | 1 to 10 | 25 to 75 |  |  |
| O=S(=O)(c1ccccc1)N(CC(F)(F)F)c1ccc(C(O)(C(F)(F)F)C(F)(F)F)cc1 [Compound T0901317, reference compound] | 10 to 100 | > 75 |  |  |
